Reference: patent publication US11793849B2, “Method of Chinese herbal medicine extract used for treating multiple diseases caused by drug resistant bacteria infection” (priority 2016, dated 2023)
In brackets after ≈: the same amount, converted by molar mass. Like-named read-outs stand apart in the source and are kept apart here.

Legend:
MDRAB = experiment: MIC determination, microdilution broth method; format: cell-based, Acinetobacter baumannii
Procedure: Determination methods of a Minimal Inhibitory Concentration (MIC) and a Minimum Bactericidal Concentration (MBC) of a test product: the MIC and the MBC of the Pithecellobium clypearia Benth water or ethanol extract to the MDRAB are determined by a microdilution broth method. And it is operated by referring to the microdilution broth method recommended by National Committee for Clinical Laboratory Standards (NCCLS).

ATCC27853 = experiment: MIC determination, control strain; format: cell-based
Procedure: Determination methods of a Minimal Inhibitory Concentration (MIC) and a Minimum Bactericidal Concentration (MBC) of a test product: the MIC and the MBC of the Pithecellobium clypearia Benth water or ethanol extract to the MDRAB are determined by a microdilution broth method.

[1] = single use, 20 MDRABs, EA=10% ethanol extract
[2] = single use, 20 MDRABs, EA=water extract
[3] = single use, 20 MDRABs, section of the 95% ethanol extract

## CC(C)(O/N=C(\C(=O)N[C@@H]1C(=O)N2C(C(=O)[O-])=C(C[n+]3ccccc3)CS[C@H]12)c1csc(N)n1)C(=O)O [CAZ, Ceftazidime]
MDRAB; Acinetobacter baumannii, strain A1, EA=P. clypearia 95% ethanol extract, read-out: single-use MIC
  MIC: 128 µg/mL (≈ 234 µM)
MDRAB; Acinetobacter baumannii, strain A2, EA=P. clypearia 95% ethanol extract, read-out: single-use MIC
  MIC: 512 µg/mL (≈ 937 µM)
MDRAB; Acinetobacter baumannii, strain A3, EA=P. clypearia 95% ethanol extract, read-out: single-use MIC
  MIC: 512 µg/mL (≈ 937 µM)
MDRAB; Acinetobacter baumannii, strain A4, EA=P. clypearia 95% ethanol extract, read-out: single-use MIC
  MIC: 256 µg/mL (≈ 468 µM)
MDRAB; Acinetobacter baumannii, strain A5, EA=60% ethanol extract, read-out: MIC
  MIC: 64 µg/mL (≈ 117 µM)
MDRAB; Acinetobacter baumannii, strain A5, EA=95% ethanol extract, read-out: MIC
  MIC: 64 µg/mL (≈ 117 µM)
MDRAB; Acinetobacter baumannii, strain A5, EA=P. clypearia 95% ethanol extract, read-out: single-use MIC
  MIC: 64 µg/mL (≈ 117 µM)
MDRAB; Acinetobacter baumannii, strain A5, single use, EA=10% ethanol extract, read-out: MIC
  MIC: 64 µg/mL (≈ 117 µM)
MDRAB; Acinetobacter baumannii, strain A5, single use, EA=water extract, read-out: MIC
  MIC: 64 µg/mL (≈ 117 µM)
MDRAB; Acinetobacter baumannii, strain A6, EA=60% ethanol extract, read-out: MIC
  MIC: > 512 µg/mL
MDRAB; Acinetobacter baumannii, strain A6, EA=95% ethanol extract, read-out: MIC
  MIC: > 512 µg/mL
MDRAB; Acinetobacter baumannii, strain A6, EA=P. clypearia 95% ethanol extract, read-out: single-use MIC
  MIC: 1020 µg/mL (≈ 1870 µM)
MDRAB; Acinetobacter baumannii, strain A6, single use, EA=10% ethanol extract, read-out: MIC
  MIC: > 512 µg/mL
MDRAB; Acinetobacter baumannii, strain A6, single use, EA=water extract, read-out: MIC
  MIC: > 512 µg/mL
MDRAB; Acinetobacter baumannii, strain A7, EA=60% ethanol extract, read-out: MIC
  MIC: > 512 µg/mL
MDRAB; Acinetobacter baumannii, strain A7, EA=95% ethanol extract, read-out: MIC
  MIC: > 512 µg/mL
MDRAB; Acinetobacter baumannii, strain A7, EA=P. clypearia 95% ethanol extract, read-out: single-use MIC
  MIC: 1020 µg/mL (≈ 1870 µM)
MDRAB; Acinetobacter baumannii, strain A7, single use, EA=10% ethanol extract, read-out: MIC
  MIC: > 512 µg/mL
MDRAB; Acinetobacter baumannii, strain A7, single use, EA=water extract, read-out: MIC
  MIC: > 512 µg/mL
MDRAB; Acinetobacter baumannii, strain A8, EA=P. clypearia 95% ethanol extract, read-out: single-use MIC
  MIC: 512 µg/mL (≈ 937 µM)
MDRAB; Acinetobacter baumannii, strain A9, EA=P. clypearia 95% ethanol extract, read-out: single-use MIC
  MIC: 512 µg/mL (≈ 937 µM)
MDRAB; Acinetobacter baumannii, strain A10, EA=P. clypearia 95% ethanol extract, read-out: single-use MIC
  MIC: 512 µg/mL (≈ 937 µM)
MDRAB; Acinetobacter baumannii, strain A11, EA=P. clypearia 95% ethanol extract, read-out: single-use MIC
  MIC: 512 µg/mL (≈ 937 µM)
MDRAB; Acinetobacter baumannii, strain A12, EA=P. clypearia 95% ethanol extract, read-out: single-use MIC
  MIC: 512 µg/mL (≈ 937 µM)
MDRAB; Acinetobacter baumannii, strain A13, EA=P. clypearia 95% ethanol extract, read-out: single-use MIC
  MIC: 256 µg/mL (≈ 468 µM)
MDRAB; Acinetobacter baumannii, strain A14, EA=P. clypearia 95% ethanol extract, read-out: single-use MIC
  MIC: 512 µg/mL (≈ 937 µM)
MDRAB; Acinetobacter baumannii, strain A15, EA=P. clypearia 95% ethanol extract, read-out: single-use MIC
  MIC: 256 µg/mL (≈ 468 µM)
MDRAB; Acinetobacter baumannii, strain A16, EA=P. clypearia 95% ethanol extract, read-out: single-use MIC
  MIC: 512 µg/mL (≈ 937 µM)
MDRAB; Acinetobacter baumannii, strain A17, EA=P. clypearia 95% ethanol extract, read-out: single-use MIC
  MIC: 256 µg/mL (≈ 468 µM)
MDRAB; Acinetobacter baumannii, strain A18, EA=P. clypearia 95% ethanol extract, read-out: single-use MIC
  MIC: 512 µg/mL (≈ 937 µM)
MDRAB; Acinetobacter baumannii, strain A19, EA=P. clypearia 95% ethanol extract, read-out: single-use MIC
  MIC: 256 µg/mL (≈ 468 µM)
MDRAB; Acinetobacter baumannii, strain A20, EA=P. clypearia 95% ethanol extract, read-out: single-use MIC
  MIC: 512 µg/mL (≈ 937 µM)
MDRAB; Acinetobacter baumannii, single use, 20 MDRABs, section of the 60% ethanol extract, read-out: MIC50
  MIC50: 512 µg/mL (≈ 937 µM)
MDRAB; Acinetobacter baumannii, single use, 20 MDRABs, section of the 60% ethanol extract, read-out: MIC90
  MIC90: 512 µg/mL (≈ 937 µM)
MDRAB; MDRABs, EA=60% ethanol extract
  MIC50: 512 µg/mL (≈ 937 µM)
  MIC90: 512 µg/mL (≈ 937 µM)
  MIC Range: 64 to 512 µg/mL
MDRAB; MDRABs, EA=95% ethanol extract
  MIC50: 512 µg/mL (≈ 937 µM)
  MIC90: 512 µg/mL (≈ 937 µM)
  MIC Range: 64 to 512 µg/mL
MDRAB; [1]
  MIC50: 512 µg/mL (≈ 937 µM)
  MIC90: 512 µg/mL (≈ 937 µM)
  MIC Range: 64 to 512 µg/mL
MDRAB; [2]
  MIC50: 512 µg/mL (≈ 937 µM)
  MIC90: 512 µg/mL (≈ 937 µM)
  MIC Range: 64 to 512 µg/mL
MDRAB; [3]
  MIC50: 512 µg/mL (≈ 937 µM)
  MIC90: 512 µg/mL (≈ 937 µM)
MDRAB; strain A6, single use, EA=10% ethanol extract
  MIC: 1024 µg/mL (≈ 1870 µM)
MDRAB; strain A6, single use, EA=water extract
  MIC: 1024 µg/mL (≈ 1870 µM)
MDRAB; strain A7, single use, EA=10% ethanol extract
  MIC: 1024 µg/mL (≈ 1870 µM)
MDRAB; strain A7, single use, EA=water extract
  MIC: 1024 µg/mL (≈ 1870 µM)
ATCC27853; EA=10% ethanol extract, read-out: MIC
  MIC: 4 µg/mL (≈ 7.32 µM)
ATCC27853; EA=60% ethanol extract, read-out: MIC
  MIC: 4 µg/mL (≈ 7.32 µM)
ATCC27853; EA=95% ethanol extract, read-out: MIC
  MIC: 4 µg/mL (≈ 7.32 µM)
ATCC27853; EA=P. clypearia 10% ethanol extract, read-out: MIC (single use)
  MIC: 4 µg/mL (≈ 7.32 µM)
ATCC27853; EA=P. clypearia water extract, read-out: MIC (single use)
  MIC: 4 µg/mL (≈ 7.32 µM)
ATCC27853; EA=water extract, read-out: MIC
  MIC: 4 µg/mL (≈ 7.32 µM)
ATCC27853; single use, EA = 60% ethanol extract, read-out: MIC
  MIC: 4 µg/mL (≈ 7.32 µM)
ATCC27853; single use, EA = 95% ethanol extract, read-out: MIC
  MIC: 4 µg/mL (≈ 7.32 µM)
